Legend:
[1] = tested on: MCF-7 cell line (human breast cancer cell line); settings: cited from earlier work
uterine response = settings: preclinical models of uterine stimulation; cited from earlier work
ovariectomized rat = ovariectomized rat model of osteopenia; cited from earlier work
[2] = Solubility of bazedoxifene acetate forms (dynamic dissolution method using Crystal-16 and HPLC method); type: physicochemical; settings: for solubility compared with Form B: crystallization solvent
Protocol: The profiles of the temperature and magnetic stirring speed for each row may be independently adjusted. The turbidity of each vial was monitored and plotted with the temperature profiles to determine dissolution and precipitation points of solids. A pre-weighed amount of solid and solvent were mixed together in clear glass vials, and were heated slowly (at 0.2° C./min). The dissolution temperature was recorded. The concentration of the solution (calculated based on the weight of solid and solvent) was treated as the saturation concentration at the recorded temperature, and solubility was calculated based on this concentration. […] The suspension was filtered after stirring for 30 minutes and the solution concentration was analyzed by HPLC. The measured solubility data for the two methods are plotted in FIGS. 4 and 5.

In the case of `Cc1c(-c2ccc(O)cc2)n(Cc2ccc(OCCN3CCCCCC3)cc2)c2ccc(O)cc12` [bazedoxifene acetate, 1-[4-(2-azepan-1-yl-ethoxy)-benzyl]-2-(4-hydroxy-phenyl)-3-methyl-1H-indol-5-ol acetic acid], the estrogen agonist/antagonist behaviour [1] is given as “behaves as an estrogen antagonist”, the “stimulation of uterine response” value (uterine response) is given as “little or no stimulation” and the preventing bone loss (ovariectomized rat) is given as “estrogen agonist-like effect”. For the same compound, the reducing cholesterol (ovariectomized rat) was “estrogen agonist-like effect”.

For `Cc1c(-c2ccc(O)cc2)n(Cc2ccc(OCCN3CCCCCC3)cc2)c2ccc(O)cc12` [Form D, 1-[4-(2-azepan-1-yl-ethoxy)-benzyl]-2-(4-hydroxy-phenyl)-3-methyl-1H-indol-5-ol acetic acid], the “solubility compared with Form A” value ([2]; at 0-60° C.) was “less soluble”, the “solubility compared with Form B” value ([2]; above about 30° C.) was “slightly higher than that of Form B” and the “solubility compared with Form B” value ([2]; below about 30° C.) was “very similar to Form B solubility”.

For `CC(=O)O.Cc1c(-c2ccc(O)cc2)n(Cc2ccc(OCCN3CCCCCC3)cc2)c2ccc(O)cc12` [Form A], the “solubility compared with other forms” value ([2]; all conditions studied, crystallization solvent and slurry test solvent) was “higher than Forms B and D”.
